Reference: patent US20200031820A1, “3-CARBOXYLIC ACID PYRROLES AS NRF2 REGULATORS” (GLSXOSMITHKLINE INTELLECTUAL PROPERTY DEVELOPMENT LIMITED, priority 2016, published 2020)

Biological target: T1, full length NRF2 protein and full length Keap1 protein (Homo sapiens, UniProt Q14145)
T1 construct: full length NRF2 protein and full length Keap1 protein; His
Assay: NRF2-Keap1 TR-FRET Low Protein Assay
Assay type: binding
Settings: Keap1 FlagHis, biotin-NRF2
From the text: NRF2-Keap1 TR-FRET Low Protein Assay In the NRF2-Keap1 TR-FRET (time-resolved fluorescence resonance energy transfer) low protein assay, full length NRF2 protein and full length Keap1 protein (Keap1 exists a dimer) are used. The assay detects a compound's ability to displace the binding of Keap1 FlagHis with biotinylated Avi-NRF2 protein. Biotin-NRF2 binds to streptavidin-europium (a component of the detection mix) and Keap1 FlagHis is recognized by anti-Flag APC (allophycocyanin) antibody (also a component of the detection mix). If binding occurs between the two proteins, there will be an energy transfer from the Eu+3 (donor) at 615 nm to the APC (acceptor) at 665 nm. A potential NRF2 inhibitor will cause a reduction in the TR-FRET signal by interfering with the binding of Keap1 to NRF2.
Ten nanoliters of 100× compound dose response curves (serial 3-fold dilutions) in DMSO were stamped using an Echo liquid handling system (Labcyte) into 384-well, low volume, black assay plates (Greiner, #784076), with DMSO in columns 6 and 18. An additional 90 nl DMSO was added to each well, to bring the total volume to 100 nl per well. The top concentration of compound was located in columns 1 and 13, with the serial dilutions going across the row. All reagents were diluted in assay buffer (50 mM Tris, pH 8.0, 5 mM MgCl2, 100 mM NaCl, 0.005% BSA, 1 mM DTT, and 2 mM CHAPS. The BSA, DTT, and CHAPS were added to the assay buffer on the day of assay. Using a Multidrop Combi (Thermo Electron Corporation) equipped with a metal tip dispenser, 5 ul of 1.25 nM Keap1 FlagHis protein was added to all wells of the compound plate, with the exception of the wells in column 18. Wells in column 18 received 5 ul of assay buffer instead. Plates were centrifuged at 500 rpm for 1 minute, covered with a plate lid, and incubated at 37° C. for 2.25 hours. Plates were then removed from the incubator and allowed to cool to RT for 15 minutes. Five microliters of 2.5 nM biotin-NRF2 protein was then added to all wells of the plates and the plates were spun at 500 rpm for 1 minute, followed by incubating at 4° C. for 1.25 hours. The plates were then allowed to warm to RT for 15 minutes, followed by the addition of 10 ul of detection mix (1 nM Streptavidin Eu+ W1024 and 5 ug/ml mouse anti-DYKDDDDK IgG conjugated to SureLight APC antibody; both from Columbia Biosciences) to all wells. Plates were spun at 500 rpm for 1 minute, incubated for 1 hour at RT, and read on an Envision plate reader using a 320 nm excitation filter and 615 nm and 665 nm emission filters. Compound response (% inhibition) and potency (pIC50) were calculated based on the ratio of the two emissions (665 nm/615 nm) and then the transformed data is normalized against controls in the assay (control 1=1% DMSO in the presence of NRF2 and Keap1 protein and control 2=1% DMSO in the presence of only the NRF2 protein). Data analysis was handled using the software package Abase XE (Surrey, United Kingdom). The % inhibition values were calculated from the ratio (transformed) data by the equation:
100−(100*(compound response−average control 2)/(average control 1−average control2)).
For calculation of pIC50s, Abase XE used a four-parameter equation.
IC50s<10 nM (+++++), IC50s 10-100 nM (++++), IC50s 100 nM-1 uM (+++), IC50s 1-10 uM (++). & IC50s 10 uM-100 uM (+), IC50s >100 uM (−), or were not determined (ND).

T1 sequence (Q14145 whole entry): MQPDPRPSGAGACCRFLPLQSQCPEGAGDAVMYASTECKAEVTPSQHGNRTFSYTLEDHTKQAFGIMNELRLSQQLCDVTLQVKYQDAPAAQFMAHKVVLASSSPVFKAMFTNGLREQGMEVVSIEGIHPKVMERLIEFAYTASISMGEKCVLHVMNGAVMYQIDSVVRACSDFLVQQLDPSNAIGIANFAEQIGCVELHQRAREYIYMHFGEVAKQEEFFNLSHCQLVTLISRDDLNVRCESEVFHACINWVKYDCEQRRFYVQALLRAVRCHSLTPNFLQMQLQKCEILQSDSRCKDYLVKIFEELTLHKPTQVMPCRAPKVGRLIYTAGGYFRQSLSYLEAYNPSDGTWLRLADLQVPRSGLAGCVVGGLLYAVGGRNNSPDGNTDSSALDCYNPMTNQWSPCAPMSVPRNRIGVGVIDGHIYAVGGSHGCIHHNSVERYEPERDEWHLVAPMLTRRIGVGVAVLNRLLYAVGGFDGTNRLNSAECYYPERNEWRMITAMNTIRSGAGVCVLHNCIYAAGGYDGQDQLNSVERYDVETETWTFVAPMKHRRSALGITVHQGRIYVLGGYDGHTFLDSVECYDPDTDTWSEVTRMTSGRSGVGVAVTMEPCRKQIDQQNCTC

`C[C@H]1Cc2ccc(C(F)(F)F)cc2S(=O)(=O)N(C2CCc3c2cccc3-n2ccc(C(=O)O)c2C2CC2)C1` (mixture of isomers) [Example 12, 2-Cyclopropyl-1-(1-((S)-4-methyl-1,1-dioxido-8-(trifluoromethyl)-4,5-dihydrobenzo[f][1,2]thiazepin-2(3H)-yl)-2,3-dihydro-1H-inden-4-yl)-1H-pyrrole-3-carboxylic acid] was tested, and the EC50 was 10000 to 100000 nM.

Compound `C[C@H]1Cc2ccc(C(F)(F)F)cc2S(=O)(=O)N(Cc2cccc(-n3ccc(C(=O)O)c3[C@@H]3C[C@H]3c3cn(C)nn3)c2)C1` (racemic) [Example 1, 1-(3-(((S)-4-Methyl-1,1-dioxido-8-(trifluoromethyl)-4,5-dihydrobenzo[f]-[1,2]thiazepin-2(3H)-yl)methyl)phenyl)-2-(trans-2-(1-methyl-1H-1,2,3-triazol-4-yl)cyclopropyl)-1H-pyrrole-3-carboxylic acid] has an EC50 of 10 to 100 nM.

`C[C@H]1Cc2cc(C(F)(F)F)ccc2S(=O)(=O)N(Cc2cccc(-n3ccc(C(=O)O)c3[C@@H]3C[C@H]3c3cn(C)nn3)c2)C1` (racemic) [Example 2, 1-(3-(((S)-4-methyl-1,1-dioxido-7-(trifluoromethyl)-4,5-dihydrobenzo[f][1,2]thiazepin-2(3H)-yl)methyl)phenyl)-2-(trans-2-(1-methyl-1H-1,2,3-triazol-4-yl)cyclopropyl)-1H-pyrrole-3-carboxylic acid] showed an EC50 of 10 to 100 nM.

`Cc1c(CN2C[C@@H](C)Cc3ccc(C(F)(F)F)cc3S2(=O)=O)cccc1-n1ccc(C(=O)O)c1[C@@H]1C[C@H]1c1cn(C)nn1` (racemic) [Example 10, rac-2-(trans-2-(1-methyl-1H-1,2,3-triazol-4-yl)cyclopropyl)-1-(2-methyl-3-(((S)-4-methyl-1,1-dioxido-8-(trifluoromethyl)-4,5-dihydrobenzo[f][1,2]thiazepin-2(3H)-yl)methyl)phenyl)-1H-pyrrole-3-carboxylic acid] was tested, and the EC50 was 100 to 1000 nM.

For `Cc1ccc(CN2C[C@@H](C)Cc3ccc(C(F)(F)F)cc3S2(=O)=O)cc1-n1ccc(C(=O)O)c1[C@@H]1C[C@H]1c1cn(C)nn1` (racemic) [Example 11, rac-2-(trans-2-(1-methyl-1H-1,2,3-triazol-4-yl)cyclopropyl)-1-(2-methyl-5-(((S)-4-methyl-1,1-dioxido-8-(trifluoromethyl)-4,5-dihydrobenzo[f][1,2]thiazepin-2(3H)-yl)methyl)phenyl)-1H-pyrrole-3-carboxylic acid], the EC50 was 1000 to 10000 nM.

`C[C@H](Oc1cccc(-c2cccc(-n3ccc(C(=O)O)c3[C@@H]3C[C@H]3c3cn(C)nn3)c2)c1)C1CCCCC1` (racemic) [Example 13, 1-(3′-((S)-1-Cyclohexylethoxy)-[1,1′-biphenyl]-3-yl)-2-(trans-2-(1-methyl-1H-1,2,3-triazol-4-yl)cyclopropyl)-1H-pyrrole-3-carboxylic acid] showed an EC50 of 100 to 1000 nM.

With `CCC[C@@H]1CCCCN1C(=O)c1cccc(-c2cccc(-n3ccc(C(=O)O)c3[C@@H]3C[C@H]3c3cn(C)nn3)c2)c1` (racemic) [Example 14, 2-(trans-2-(1-methyl-1H-1,2,3-triazol-4-yl)cyclopropyl)-1-(3′-((R)-2-propylpiperidine-1-carbonyl)-[1,1′-biphenyl]-3-yl)-1H-pyrrole-3-carboxylic acid] the EC50 was 10 to 100 nM.

For `CCC[C@@H]1CCCCN1C(=O)c1cccc(-c2cccc(-n3ccc(C(=O)O)c3[C@@H]3C[C@H]3c3cn(C)nn3)c2)c1F` (racemic) [Example 15, 1-(2′-fluoro-3′-((R)-2-propylpiperidine-1-carbonyl)-[1,1′-biphenyl]-3-yl)-2-(trans-2-(1-methyl-1H-1,2,3-triazol-4-yl)cyclopropyl)-1H-pyrrole-3-carboxylic acid], the EC50 was 10 to 100 nM.

`Cn1cc([C@@H]2C[C@H]2c2c(C(=O)O)ccn2-c2cccc(CN3Cc4cc(F)ccc4OC(C)(C)C3)c2)nn1` (racemic) [Example 19] gave an EC50 of 100 to 1000 nM.

`Cn1cc([C@@H]2C[C@H]2c2c(C(=O)O)ccn2-c2cccc(CN3Cc4cc(Br)ccc4OC(C)(C)C3)c2)nn1` (racemic) [Example 20] was tested, and the EC50 was 100 to 1000 nM.

`Cn1cc([C@@H]2C[C@H]2c2c(C(=O)O)ccn2-c2cccc(CN3Cc4ccccc4CC(C)(C)C3)c2)nn1` (racemic) [Example 21] showed an EC50 of 100 to 1000 nM.

`CCCC[C@H]1Cc2ccccc2S(=O)(=O)N(Cc2cccc(-n3ccc(C(=O)O)c3[C@@H]3C[C@H]3c3cn(C)nn3)c2)C1` [Example 3, 1-(3-(((S)-4-butyl-1,1-dioxido-4,5-dihydrobenzo[f][1,2]thiazepin-2(3H)-yl)methyl)phenyl)-2-((1R,2R)-2-(1-methyl-1H-1,2,3-triazol-4-yl)cyclopropyl)-1H-pyrrole-3-carboxylic acid] gave an EC50 of 10 to 100 nM.

Compound `CCCC[C@H]1Cc2ccc(C(F)(F)F)cc2S(=O)(=O)N(Cc2cccc(-n3ccc(C(=O)O)c3[C@@H]3C[C@H]3c3cn(C)nn3)c2)C1` [Example 6, 1-(3-(((S)-4-butyl-1,1-dioxido-8-(trifluoromethyl)-4,5-dihydrobenzo[f][1,2]thiazepin-2(3H)-yl)methyl)phenyl)-2-((1R,2R)-2-(1-methyl-1H-1,2,3-triazol-4-yl)cyclopropyl)-1H-pyrrole-3-carboxylic acid] has an EC50 of 10 to 100 nM.

With `CC[C@H]1Cc2cc(C(F)(F)F)ccc2S(=O)(=O)N(Cc2cccc(-n3ccc(C(=O)O)c3[C@@H]3C[C@H]3c3cn(C)nn3)c2)C1` [Example 7, 1-(3-(((S)-4-ethyl-1,1-dioxido-7-(trifluoromethyl)-4,5-dihydrobenzo[f][1,2]thiazepin-2(3H)-yl)methyl)phenyl)-2-((1R,2R)-2-(1-methyl-1H-1,2,3-triazol-4-yl)cyclopropyl)-1H-pyrrole-3-carboxylic acid] the EC50 was 10 to 100 nM.

For `C[C@H]1Cc2ccc(Br)cc2S(=O)(=O)N(Cc2cccc(-n3ccc(C(=O)O)c3[C@@H]3C[C@H]3c3cn(C)nn3)c2)C1` [Example 8, 1-(3-(((S)-8-bromo-4-methyl-1,1-dioxido-4,5-dihydrobenzo[f][1,2]thiazepin-2(3H)-yl)methyl)phenyl)-2-((1R,2R)-2-(1-methyl-1H-1,2,3-triazol-4-yl)cyclopropyl)-1H-pyrrole-3-carboxylic acid], the EC50 was 10 to 100 nM.

In the case of `CC[C@H]1Cc2ccc(Br)cc2S(=O)(=O)N(Cc2cccc(-n3ccc(C(=O)O)c3[C@@H]3C[C@H]3c3cn(C)nn3)c2)C1` [Example 9, 1-(3-(((S)-8-bromo-4-ethyl-1,1-dioxido-4,5-dihydrobenzo[f][1,2]thiazepin-2(3H)-yl)methyl)phenyl)-2-((1R,2R)-2-(1-methyl-1H-1,2,3-triazol-4-yl)cyclopropyl)-1H-pyrrole-3-carboxylic acid], the EC50 is reported as less than 10 nM.

`C[C@H](Oc1cccc(-c2cccc(-n3ccc(C(=O)O)c3[C@H]3C[C@@H]3c3cn(C)nn3)c2)c1)C1CCCCC1` [Example 17, 1-(3′-((S)-1-cyclohexylethoxy)-[1,1′-biphenyl]-3-yl)-2-((1S,2S)-2-(1-methyl-1H-1,2,3-triazol-4-yl)cyclopropyl)-1H-pyrrole-3-carboxylic acid] gave an EC50 of 100 to 1000 nM.

`CCC[C@@H]1CCCCN1C(=O)c1cccc(-c2cccc(-n3ccc(C(=O)O)c3[C@@H]3C[C@H]3c3cn(C)nn3)c2)c1Br` [Example 22] was tested, and the EC50 was 10 to 100 nM.

Work on `CCC[C@@H]1CCCCN1C(=O)c1cc(F)cc(-c2cccc(-n3ccc(C(=O)O)c3[C@@H]3C[C@H]3c3cn(C)nn3)c2)c1` [Example 23] yielded an EC50 of 10 to 100 nM.

`CCC[C@@H]1CCCCN1C(=O)c1cccc(-c2cccc(-n3ccc(C(=O)O)c3[C@@H]3C[C@H]3c3cn(C)nn3)c2)c1C(F)(F)F` [Example 24] showed an EC50 of 1000 to 10000 nM.
